Laboratory results from patent US5116974A, “3-carbalkoxyamino-5-aminoacyl-5H-dibenz[b,f]azepines, and methods for making” (Arzneimittelwerk Dresden GmbH, priority 1989, dated 1992).

Assays:
[1] = test system: aconitine arrhythmia in female Wistar rats; format: in vivo, rat (female Wistar); conditions: for ED73 i.v. (aconitine, rat): dose which inhibits aconitine arrhythmia up to the occurrence of isolated ventricular extrasystoles: female Wistar rats, Probit regression, confidence interval p=0.05 in parentheses; for Q = LD50 i.v./ED73 i.v. (therapeutic breadth): rat, ratio of LD50 to ED73 (aconitine model)
Method: ED73 i.v. =the dose in mg/kg, which inhibits aconitine arrhythmia in female Wistar rats after i.v. administration of the test substance up to the occurrence of isolated ventricular extrasystolea (K. Femmer et al., Pharmazie 31, page 36 (1976). The data is analyzed by the Probit regression analysis with a confidence interval of p=0.05 (values given in parentheses).

in vivo = conditions: rat, iv, male or female Wistar rats, i.v. tail vein, Probit regression, confidence interval p=0.05 in parentheses, read-out: LD50 i.v. (acute tox., rat)
Source text: LD50 i.v. =lethal dose in mg/kg for 50% of the experimental animals of an orientating acute toxicity test on male or female Wistar rats of our own breed, i.v. administration in the tail vein, 3-4 dosages, 10 animals per group. Data analyzed by the Probit regression analysis with a confidence interval of p=0.05 (values given in parentheses).

[2] = test system: dogs, 24 hours after a 2-step coronary ligature; assay: 2-step coronary ligature in dogs (Harris model); format: in vivo, dog
Source text: It is also emphasized that, in comparative investigations of the 2-step coronary ligature in dogs (Harris model), the new compounds of formula I have an advantageously sustained duration of action (see Table 1).

Solubility = format: physicochemical

Structure (SMILES) | ED73 i.v. (aconitine, rat): dose which inhibits aconitine arrhythmia up to the occurrence of isolated ventricular extrasystoles [1] | LD50 (in vivo) [mg/kg] | Q = LD50 i.v./ED73 i.v. (therapeutic breadth) [1] | duration of action (dog, Harris) ([2]; at eff. dose 2.0 mg/kg i.v.) [min] | solubility of the base in dilute acids (in words) (Solubility) | duration of action (dog, Harris) ([2]; at eff. dose 6.0 mg/kg i.v.) [min] | duration of action (dog, Harris) ([2]; at eff. dose 1.0 mg/kg i.v.) [min]
Cc1cccc(C)c1OCC(C)N (stereo not shown) [Mexiletin, mexiletin, reference compound] | 15 mg/kg | 41 |  |  |  |  | 
CCNCCC(=O)N1c2ccccc2CCc2ccc(NC(=O)OCC)cc21 [No. 21, 3-carbethoxyamino-5-(β-ethylaminopropionyl)-10,11-dihydro-5H-dibenz[b,f]azepine] | 0.42 mg/kg | 12 | 29 |  |  |  | 
CC(C)OC(=O)Nc1ccc2c(c1)N(C(=O)CNC(C)(C)C)c1ccccc1CC2 [No. 14] | 0.18 mg/kg |  |  |  |  |  | 
CCOC(=O)Nc1ccc2c(c1)N(C(=O)CCNCCO)c1ccccc1CC2 [No. 18] | 0.85 mg/kg | 20 | 24 | 60 |  |  | 
CCCNCC(=O)N1c2ccccc2CCc2ccc(NC(=O)OCC)cc21 [No. 5, 3-carbethoxyamino-5-n-propylamino-acetyl-10,11-dihydro-5H-dibenz[b,f]azepine] | 0.18 mg/kg | 6.1 | 34 |  |  |  | 
CCOC(=O)Nc1ccc2c(c1)N(C(=O)CNCc1ccccc1)c1ccccc1CC2 [No. 1, 3-carbethoxyamino-b 5-benzylaminoacetyl-10,11-dihydro-5H-dibenz[b,f]azepine] | 0.79 (0.53-1.2) mg/kg | 13 | 16 |  | not very soluble in dilute acids |  | 
CCOC(=O)Nc1ccc2c(c1)N(C(=O)CNC1CCCCC1)c1ccccc1CC2 [No. 8, 3-carbethoxyamino-5-cyclohexylamino-acetyl-10,11-dihydro-5H-dibenz[b,f]azepine] | 0.25 mg/kg | 3.7 | 15 |  |  |  | 
CCOC(=O)Nc1ccc2c(c1)N(C(=O)CNCCO)c1ccccc1CC2 [No. 2, 3-carbethoxyamino-5-(beta-oxyethylamino)acetyl-10,11-dihydro-5H-dibenz[b,f]azepine] | 0.19 mg/kg | 12 | 63 | 60 |  |  | 
CCN(CC)CC(=O)Nc1c(C)cccc1C [Lidocaine, lidocaine, reference compound] |  |  |  |  |  | 10 | 
CCOC(=O)Nc1ccc2c(c1)N(C(=O)CNC(C)c1ccccc1)c1ccccc1CC2 (stereo not drawn) [No. 22, 3-carbethoxyamino-5-(α-phenylethylamino)-acetyl-10,11-dihydro-5H-dibenz[b,f]azepine] | 3.5 mg/kg | 31 | 9 |  |  |  | 
CCOC(=O)Nc1ccc2c(c1)N(C(=O)CNC(C)(C)C)c1ccccc1CC2 [No. 6, 3-carbethoxyamino-5-tertiary-butylamino-acetyl-10,11-dihydro-5H-dibenz[b,f]azepine] | 0.35 mg/kg | 5.6 | 16 |  |  |  | 
CCCCCCNCC(=O)N1c2ccccc2CCc2ccc(NC(=O)OCC)cc21 [No. 9] | 0.90 mg/kg | 14 | 16 |  |  |  | 
CCOC(=O)Nc1ccc2c(c1)N(C(=O)CN(C)C)c1ccccc1CC2 [Bonnecor ®, 3-carbethoxyamino-5-dimethylaminoacetyl-10,11-dihydro-5H-dibenz[b,f]azepine, reference compound] | 0.28 mg/kg | 11 | 39 | 15 |  |  | 
CCOC(=O)Nc1ccc2c(c1)N(C(=O)CCN1CCOCC1)c1ccccc1S2 [Morazicine, morazicine, reference compound] | 1.1 mg/kg | 11 | 10 | 15 |  |  | 
CCOC(=O)Nc1ccc2c(c1)N(C(=O)CNC)c1ccccc1C=C2 [No. 19] | 0.32 mg/kg | 11 | 34 |  |  |  | 
CCOC(=O)Nc1ccc2c(c1)N(C(=O)CNC(C)C)c1ccccc1CC2 [No. 4, 3-carbethoxyamino-5-isopropylamino-acetyl-10,11-dihydro-5H-dibenz[b,f]azepine] | 0.71 mg/kg | 8.2 | 12 |  |  |  | 
CNCC(=O)N1c2ccccc2CCc2ccc(NC(=O)OC)cc21 [No. 15] | 0.30 mg/kg | 20 | 67 | 15 |  |  | 
CCCCNCC(=O)N1c2ccccc2CCc2ccc(NC(=O)OCC)cc21 [No. 7, 3-carbethoxyamino-5-n-butylamino-acetyl-10,11-dihydro-5H-dibenz[b,f]azepin] | 0.29 mg/kg | 5 | 17 |  |  |  | 
CCOC(=O)Nc1ccc2c(c1)N(C(=O)CN)c1ccccc1CC2 [No. 10, 3-carbethoxyamino-5-amino-acetyl-10,11-dihydro-5H-dibenz[b,f]azepine] | 0.20 mg/kg | 14 | 70 |  |  |  | 
CCNCC(=O)N1c2ccccc2CCc2ccc(NC(=O)OC(C)C)cc21 [No. 13, 3-carbisopropoxyamino-5-ethylamino-acetyl-10,11-dihydro-5H-dibenz[b,f]azepine] | 0.47 mg/kg | 16 | 34 |  |  |  | 
CCNCC(=O)N1c2ccccc2CCc2ccc(NC(=O)OC)cc21 [No. 17] | 0.95 mg/kg | 19 | 20 | 15 |  |  | 
CC(C)OC(=O)Nc1ccc2c(c1)N(C(=O)CNCCO)c1ccccc1CC2 [No. 12] | 0.51 mg/kg | 20 | 39 |  |  |  | 
CCNCC(=O)N1c2ccccc2CCc2ccc(NC(=O)OCC)cc21 [No. 3] | 0.09 mg/kg | 9.6 | 107 | 180 |  |  | 60
COC(=O)Nc1ccc2c(c1)N(C(=O)CNCCO)c1ccccc1CC2 [No. 16] | 0.40 mg/kg | 36 | 90 |  |  |  | 
CNCC(=O)N1c2ccccc2CCc2ccc(NC(=O)OC(C)C)cc21 [No. 11] | 0.61 mg/kg | 15 | 25 |  |  |  | 
CCNCC(=O)N1c2ccccc2C=Cc2ccc(NC(=O)OCC)cc21 [No. 20, 3-carbethoxyamino-5-ethylamino-acetyl-acetyl-5H-dibenz[b,f]azepine] | 0.40 mg/kg | 6.2 | 15 |  |  |  | 
